PubChem BioAssay (NCI)
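Tested at 5 concentrations; 48 h exposure; 96-well plates; endpoints linearly interpolated, else capped at highest concentration. GI50 is the concentration that inhibits growth by half. TGI marks complete inhibition of growth.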

How the values were obtained:
Experiment in all cases: inhibition of tumour cell growth, NCI panel, 48 h
[1] = tested on: SK-MEL-5 melanoma
[2] = tested on: OVCAR-3 ovarian
[3] = tested on: T-47D breast
[4] = tested on: UACC-257 melanoma
[5] = tested on: U251 CNS
[6] = tested on: A549 NSCLC
[7] = tested on: SK-MEL-28 melanoma
[8] = tested on: HS 578T breast
[9] = tested on: UACC-62 melanoma
[10] = tested on: OVCAR-4 ovarian
[11] = tested on: SK-MEL-2 melanoma
[12] = tested on: EKVX NSCLC
[13] = tested on: SF-539 CNS
[14] = tested on: SNB-75 CNS
[15] = tested on: RPMI-8226 leukemia
[16] = tested on: HOP-92 NSCLC
[17] = tested on: TK-10 renal
[18] = tested on: SK-OV-3 ovarian
[19] = tested on: SF-268 CNS
[20] = tested on: K-562 leukemia
[21] = tested on: HCT-15 colon
[22] = tested on: MOLT-4 leukemia
[23] = tested on: NCI-H226 lung
[24] = tested on: M14 melanoma
[25] = tested on: UO-31 renal
[26] = tested on: MALME-3M melanoma
[27] = tested on: HT29 colon
[28] = tested on: MDA-MB-231 breast
[29] = tested on: KM12 colon
[30] = tested on: SF-295 CNS
[31] = tested on: PC-3 prostate
[32] = tested on: A498 renal
[33] = tested on: SW-620 colon
[34] = tested on: HCC-2998 colon
[35] = tested on: HOP-62 NSCLC
[36] = tested on: HCT-116 colon
[37] = tested on: OVCAR-5 ovarian
[38] = tested on: ACHN renal
[39] = tested on: MDA-MB-435
[40] = tested on: 786-0 renal
[41] = tested on: NCI-H522 lung
[42] = tested on: IGROV1 ovarian
[43] = tested on: LOX IMVI melanoma
[44] = tested on: RXF 393 renal
[45] = tested on: COLO 205 colon
[46] = tested on: CCRF-CEM leukemia
[47] = tested on: CAKI-1 renal
[48] = tested on: OVCAR-8 ovarian
[49] = tested on: BT-549 breast
[50] = tested on: NCI-H23 lung
[51] = tested on: SNB-19 CNS
[52] = tested on: SN12C renal
[53] = tested on: DU-145 prostate
[54] = tested on: NCI/ADR-RES ovarian

## COc1ccc2c(CNCCCCO)cc3cc4c(cc3c2c1)OCO4
[1]
  GI50: 818 nM
  TGI: 2130 nM
[2]
  GI50: 984 nM
  TGI: 4950 nM
[3]
  GI50: 3710 nM
  TGI: > 46700 nM
[4]
  GI50: 823 nM
  TGI: 2880 nM
[5]
  GI50: 1850 nM
  TGI: 7290 nM
[6]
  GI50: 552 nM
  TGI: 6070 nM
[7]
  GI50: 4930 nM
  TGI: 11000 nM
[8]
  GI50: 929 nM
  TGI: 4100 nM
[9]
  GI50: 1590 nM
  TGI: 3290 nM
[10]
  GI50: 2310 nM
  TGI: 7540 nM
[11]
  GI50: 1630 nM
  TGI: 3930 nM
[12]
  GI50: 2780 nM
  TGI: 11400 nM
[13]
  GI50: 1260 nM
  TGI: 4130 nM
[14]
  GI50: 2020 nM
  TGI: 6670 nM
[15]
  GI50: 655 nM
  TGI: 3770 nM
[16]
  GI50: 598 nM
  TGI: 4400 nM
[17]
  GI50: 1850 nM
  TGI: 9980 nM
[18]
  GI50: 4200 nM
  TGI: 23800 nM
[19]
  GI50: 151 nM
  TGI: 1150 nM
[20]
  GI50: 1070 nM
  TGI: 20300 nM
[21]
  GI50: 1430 nM
  TGI: 8610 nM
[22]
  GI50: 263 nM
  TGI: 3940 nM
[23]
  GI50: 638 nM
  TGI: 1620 nM
[24]
  GI50: 2070 nM
  TGI: 4680 nM
[25]
  GI50: 210 nM
  TGI: 4120 nM
[26]
  GI50: 1650 nM
  TGI: 4080 nM
[27]
  GI50: 1290 nM
  TGI: 6870 nM
[28]
  GI50: 2060 nM
  TGI: 6200 nM
[29]
  GI50: 1830 nM
  TGI: 7330 nM
[30]
  GI50: 624 nM
  TGI: 4680 nM
[31]
  GI50: 986 nM
  TGI: 7180 nM
[32]
  GI50: 1160 nM
  TGI: 2980 nM
[33]
  GI50: 228 nM
  TGI: 2350 nM
[34]
  GI50: 1660 nM
  TGI: 6570 nM
[35]
  GI50: 1980 nM
  TGI: 10600 nM
[36]
  GI50: 609 nM
  TGI: 9500 nM
[37]
  GI50: 2720 nM
  TGI: 8950 nM
[38]
  GI50: 891 nM
  TGI: 3700 nM
[39]
  GI50: 982 nM
  TGI: 3540 nM
[40]
  GI50: 1630 nM
  TGI: > 32200 nM
[41]
  GI50: 228 nM
  TGI: 2930 nM
[42]
  GI50: 407 nM
  TGI: 4750 nM
[43]
  GI50: 1250 nM
  TGI: 5370 nM
[44]
  GI50: 680 nM
  TGI: 2490 nM
[45]
  GI50: 1360 nM
  TGI: 4410 nM
[46]
  GI50: 777 nM
  TGI: 10900 nM
[47]
  GI50: 628 nM
  TGI: 2960 nM
[48]
  GI50: 341 nM
  TGI: 6680 nM
[49]
  GI50: 3830 nM
  TGI: 11900 nM
[50]
  GI50: 2240 nM
  TGI: 6430 nM
[51]
  GI50: 1710 nM
  TGI: 9780 nM
[52]
  GI50: 1920 nM
  TGI: 7720 nM
[53]
  GI50: 1330 nM
  TGI: 7090 nM
[54]
  GI50: 1450 nM
  TGI: 8120 nM
